Laboratory results published in patent US20080069860A1, “HYPERPHOSPHATEMIA IN DOMESTIC ANIMALS: COMPOSITIONS AND METHODS OF TREATMENT” (priority 2005, published 2008).

Columns and labels:
[1] = test system: Sprague-Dawley rats underwent 5/6th nephrectomy; assay: In vivo study in 5/6th nephrectomy rats, urine phosphorus excretion; conditions: 314 mg elemental lanthanum/kg/day oral, once daily for 14 days, compared to untreated rats
Protocol: Groups of six adult Sprague-Dawley rats underwent 5/6th nephrectomy in two stages over a period of 2 weeks and were then allowed to recover for a further two weeks prior to being randomized for treatment. The groups received vehicle (0.5% w/v carboxymethyl cellulose), or lanthanum oxycarbonate suspended in vehicle, once daily for 14 days by […] (10 ml/kg/day). The dose delivered 314 mg elemental lanthanum/kg/day. Dosing was carried out immediately before the dark (feeding) cycle on each day. Urine samples (24 hours) were collected prior to surgery, prior to the commencement of treatment, and twice weekly during the treatment period. Volume and phosphorus concentration were measured.
Feeding—During the acclimatization and surgery period, the animals were given Teklad phosphate sufficient diet (0.5% Ca, 0.3%P; Teklad No. TD85343), ad libitum. At the beginning of the treatment period, animals were pair fed based upon the average food consumption of the vehicle-treated animals the previous week.
5/6 Nephrectomy—After one week of acclimatization, all animals were subjected to 5/6 nephrectomy surgery. The surgery was performed in two stages. First, the two lower branches of the left renal artery were ligated. One week later, a right nephrectomy was performed. […]

beagle dogs = assay: Dog study, urine phosphate excretion after oral capsules; type: in vivo; conditions: 2250 mg elemental lanthanum twice daily, urine approximately 24 hours after dosing
dogs = assay: Palatability study in dogs; type: in vivo; conditions: 9 dogs, during hours post meal
From the text: Lanthanum oxycarbonate was mixed with wet and dry dog food and presented to 9 different dogs, almost all over 40 pounds.

Molecule | phosphorus excretion (urine), a marker of dietary phosphorus binding [1] | urine phosphate excretion, a marker of phosphorous binding (beagle dogs) | signs of nausea, vomiting, bloating or flatus (dogs)
O=C([O-])[O-].[La+3].[OH-] [lanthanum carbonate hydroxide] | decrease in phosphorus excretion |  | 
O=C([O-])[O-].[La+3].[OH-] [compound A, LaCO3OH] |  | reduction of urine phosphate excretion | 
O=C([O-])[O-].[La+3].[La+3].[O-2].[O-2] [compound B, La2O2CO3] |  | reduction of urine phosphate excretion | 
lanthanum oxycarbonate | decrease in phosphorus excretion |  | None of the dogs exhibited signs of nausea, vomiting, bloating or flatus
